Results taken from patent US20240109918A1, “HETEROCYCLIC COMPOUNDS AND USES THEREOF” (Kumquat Biosciences Inc., priority 2022, published 2024).

Tests used:
KRASwt = biological target: T1, KRASwt (Homo sapiens, UniProt P01116); assay: Bio-Biochem-PPI-HTRF Ras-SOS1 interaction assay (KRAS wt); type: biochemical; details: 5 nM
T1 construct: made in house; host or cells: E. coli BL21 (DE3)
Procedure, shortened: (§1)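 Inhibition of His-hSOS1 binding to GST-tagged wild-type or G12D K-Ras is read as HTRF ratio (665/620 nm) following incubation of about 10 minutes or longer, and IC50 values are fitted from duplicate six-point titrations.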

KRASG12D = biological target: T2, KRASG12D (Homo sapiens, UniProt P01116, G12D); assay: Bio-Biochem-PPI-HTRF Ras-SOS1 interaction assay (KRAS G12D); type: biochemical; details: 5 nM
T2 construct: made in house; host or cells: E. coli BL21 (DE3)
Procedure, shortened: as §1

T1 sequence (P01116 1-188 isoform P01116-2): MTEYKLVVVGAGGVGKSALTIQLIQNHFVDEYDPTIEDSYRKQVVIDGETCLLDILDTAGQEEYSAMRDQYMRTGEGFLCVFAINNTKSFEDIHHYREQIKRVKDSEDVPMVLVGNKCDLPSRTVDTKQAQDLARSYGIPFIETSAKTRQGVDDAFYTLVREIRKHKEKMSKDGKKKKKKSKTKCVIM
T2 sequence (P01116 1-188 isoform P01116-2 G12D): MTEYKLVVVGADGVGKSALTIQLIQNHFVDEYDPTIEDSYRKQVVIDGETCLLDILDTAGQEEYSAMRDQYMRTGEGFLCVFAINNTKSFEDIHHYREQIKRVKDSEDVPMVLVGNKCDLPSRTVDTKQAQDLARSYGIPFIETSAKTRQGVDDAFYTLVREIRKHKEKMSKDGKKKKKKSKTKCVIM

With CC(C)[C@H](N)C(=O)N1CC2(CCCCN(c3nc(OC[C@@]45CCCN4C[C@H](F)C5)nc4c(F)c(-c5ccc(F)c6sc(N)c(C#N)c56)c(Cl)cc34)C2)C1 [compound 221, 4-(4-(2-(L-valyl)-2,6-diazaspiro[3.6]decan-6-yl)-6-chloro-8-fluoro-2-(((2R,7aS)-2-fluorotetrahydro-1H-pyrrolizin-7a(5H)-yl)methoxy)quinazolin-7-yl)-2-amino-7-fluorobenzo[b]thiophene-3-carbonitrile] the IC50 (KRASwt) was under 5 µM and the IC50 (KRASG12D) was under 5 µM.

N#Cc1c(N)sc2c(F)ccc(-c3c(Cl)cc4c(N5CCCCC6(CN(C(=O)C7CC7C7CC7)C6)C5)nc(OC[C@@]56CCCN5C[C@H](F)C6)nc4c3F)c12 (stereo partly drawn) [compound 261, 4-(4-(2-([1,1′-bi (cyclopropane)]-2-carbonyl)-2,6-diazaspiro[3.6]decan-6-yl)-6-chloro-8-fluoro-2-(((2R,7aS)-2-fluorotetrahydro-1H-pyrrolizin-7a(5H)-yl)methoxy)quinazolin-7-yl)-2-amino-7-fluorobenzo[b] thiophene-3-carbonitrile] gave an IC50 (KRASwt) of under 5 µM and an IC50 (KRASG12D) of under 5 µM.

N#Cc1c(N)sc2c(F)ccc(-c3c(Cl)cc4c(N5CC(F)(F)OC6(CN(C(=O)C7CC7(F)F)C6)C5)nc(OC[C@@]56CCCN5C[C@H](F)C6)nc4c3F)c12 (stereo partly drawn) [compound 167, 2-amino-4-(6-chloro-4-(2-(2,2-difluorocyclopropane-1-carbonyl)-6,6-difluoro-5-oxa-2,8-diazaspiro [3.5]nonan-8-yl)-8-fluoro-2-(((2R,7aS)-2-fluorotetrahydro-1H-pyrrolizin-7a(5H)-yl)methoxy)quinazolin-7-yl)-7-fluorobenzo[b] thiophene-3-carbonitrile] showed an IC50 (KRASwt) of under 5 µM and an IC50 (KRASG12D) of under 5 µM.

N#Cc1c(N)sc2c(F)ccc(-c3c(Cl)cc4c(N5CCCCC6(CN(C(=O)N7CC(C#N)C7)C6)C5)nc(OC[C@@]56CCCN5C[C@H](F)C6)nc4c3F)c12 [compound 274, 1-(6-(7-(2-amino-3-cyano-7-fluorobenzo[b]thiophen-4-yl)-6-chloro-8-fluoro-2-(((2R,7aS)-2-fluorotetrahydro-1H-pyrrolizin-7a(5H)-yl)methoxy)quinazolin-4-yl)-2,6-diazaspiro[3.6]decane-2-carbonyl)azetidine-3-carbonitrile] gave an IC50 (KRASwt) of under 5 µM and an IC50 (KRASG12D) of under 5 µM.

For N#Cc1c(N)sc2c(F)ccc(-c3c(Cl)cc4c(N5CCCCC6(CN(C=O)C6)C5)nc(OC[C@@]56CCCN5C[C@H](F)C6)nc4c3F)c12 [compound 271, 2-amino-4-(6-chloro-8-fluoro-2-(((2R,7aS)-2-fluorotetrahydro-1H-pyrrolizin-7a(5H)-yl)methoxy)-4-(2-formyl-2,6-diazaspiro[3.6]decan-6-yl)quinazolin-7-yl)-7-fluorobenzo[b]thiophene-3-carbonitrile], the IC50 (KRASwt) was under 5 µM and the IC50 (KRASG12D) was under 5 µM.

Work on CC1(C(=O)N2CC3(CCCCN(c4nc(OC[C@@]56CCCN5C[C@H](F)C6)nc5c(F)c(-c6ccc(F)c7sc(N)c(C#N)c67)c(Cl)cc45)C3)C2)CC1 [compound 228, 2-amino-4-(6-chloro-8-fluoro-2-(((2R,7aS)-2-fluorotetrahydro-1H-pyrrolizin-7a(5H)-yl)methoxy)-4-(2-(1-methylcyclopropane-1-carbonyl)-2,6-diazaspiro[3.6]decan-6-yl)quinazolin-7-yl)-7-fluorobenzo[b]thiophene-3-carbonitrile] yielded an IC50 (KRASwt) of under 5 µM and an IC50 (KRASG12D) of under 5 µM.

N#Cc1c(N)sc2c(F)ccc(-c3c(Cl)cc4c(N5CCCCC6(CN(C(=O)N7CCOCC7)C6)C5)nc(OC[C@@]56CCCN5C[C@H](F)C6)nc4c3F)c12 [compound 325, 2-amino-4-(6-chloro-8-fluoro-2-(((2R,7aS)-2-fluorotetrahydro-1H-pyrrolizin-7a(5H)-yl)methoxy)-4-(2-(morpholine-4-carbonyl)-2,6-diazaspiro[3.6]decan-6-yl)quinazolin-7-yl)-7-fluorobenzo[b]thiophene-3-carbonitrile] showed an IC50 (KRASwt) of under 5 µM and an IC50 (KRASG12D) of under 5 µM.

With N#Cc1c(N)sc2c(F)ccc(-c3c(Cl)cc4c(N5CCCCC6(CN(C(=O)C7CCC7C#N)C6)C5)nc(OC[C@@]56CCCN5C[C@H](F)C6)nc4c3F)c12 (stereo partly drawn) [compound 345, 2-amino-4-(6-chloro-4-(2-(2-cyanocyclobutane-1-carbonyl)-2,6-diazaspiro[3.6]decan-6-yl)-8-fluoro-2-(((2R,7aS)-2-fluorotetrahydro-1H-pyrrolizin-7a(5H)-yl)methoxy)quinazolin-7-yl)-7-fluorobenzo[b]thiophene-3-carbonitrile] the IC50 (KRASwt) was under 5 µM and the IC50 (KRASG12D) was under 5 µM.

N#Cc1c(N)sc2c(F)ccc(-c3c(Cl)cc4c(N5CCCCC6(CN(C(=O)COC(F)(F)C(F)(F)F)C6)C5)nc(OC[C@@]56CCCN5C[C@H](F)C6)nc4c3F)c12 [compound 302, 2-amino-4-(6-chloro-8-fluoro-2-(((2R,7aS)-2-fluorotetrahydro-1H-pyrrolizin-7a(5H)-yl)methoxy)-4-(2-(2-(perfluoroethoxy)acetyl)-2,6-diazaspiro[3.6]decan-6-yl)quinazolin-7-yl)-7-fluorobenzo[b]thiophene-3-carbonitrile] showed an IC50 (KRASwt) of under 5 µM and an IC50 (KRASG12D) of under 5 µM.

N#Cc1c(N)sc2c(F)ccc(-c3c(Cl)cc4c(N5CCOC6(CN(C(=O)c7cn[nH]n7)C6)C5)nc(OC[C@@]56CCCN5C[C@H](F)C6)nc4c3F)c12 [compound 163, 4-(4-(2-(2H-1,2,3-triazole-4-carbonyl)-5-oxa-2,8-diazaspiro[3.5]nonan-8-yl)-6-chloro-8-fluoro-2-(((2R,7aS)-2-fluorotetrahydro-1H-pyrrolizin-7a(5H)-yl)methoxy)quinazolin-7-yl)-2-amino-7-fluorobenzo[b]thiophene-3-carbonitrile] gave an IC50 (KRASwt) of under 5 µM and an IC50 (KRASG12D) of under 5 µM.

Compound N#Cc1c(N)sc2c(F)ccc(-c3c(Cl)cc4c(N5CCCCC6(CN(C(=O)COC(F)(F)F)C6)C5)nc(OC[C@@]56CCCN5C[C@H](F)C6)nc4c3F)c12 [compound 268, 2-amino-4-(6-chloro-8-fluoro-2-(((2R,7aS)-2-fluorotetrahydro-1H-pyrrolizin-7a(5H)-yl)methoxy)-4-(2-(2-(trifluoromethoxy)acetyl)-2,6-diazaspiro[3.6]decan-6-yl)quinazolin-7-yl)-7-fluorobenzo[b]thiophene-3-carbonitrile] has an IC50 (KRASwt) of under 5 µM and an IC50 (KRASG12D) of under 5 µM.

Compound N#Cc1c(N)sc2c(F)ccc(-c3c(Cl)cc4c(N5CCCCC6(CN(C(=O)C(C7CC7)N7CCOCC7)C6)C5)nc(OC[C@@]56CCCN5C[C@H](F)C6)nc4c3F)c12 (stereo partly drawn) [compound 223, 2-amino-4-(6-chloro-4-(2-(2-cyclopropyl-2-morpholinoacetyl)-2,6-diazaspiro[3.6]decan-6-yl)-8-fluoro-2-(((2R,7aS)-2-fluorotetrahydro-1H-pyrrolizin-7a(5H)-yl)methoxy)quinazolin-7-yl)-7-fluorobenzo[b]thiophene-3-carbonitrile] has an IC50 (KRASwt) of under 5 µM and an IC50 (KRASG12D) of under 5 µM.

Work on N#Cc1c(N)sc2c(F)ccc(-c3c(Cl)cc4c(N5CCC(F)(F)CC6(CN(C(=O)C78CC(F)(C7)C8)C6)C5)nc(OC[C@@]56CCCN5C[C@H](F)C6)nc4c3F)c12 [compound 229, 2-amino-4-(6-chloro-4-(9,9-difluoro-2-(3-fluorobicyclo[1.1.1]pentane-1-carbonyl)-2,6-diazaspiro[3.6]decan-6-yl)-8-fluoro-2-(((2R,7aS)-2-fluorotetrahydro-1H-pyrrolizin-7a(5H)-yl)methoxy)quinazolin-7-yl)-7-fluorobenzo[b]thiophene-3-carbonitrile] yielded an IC50 (KRASwt) of under 5 µM and an IC50 (KRASG12D) of under 5 µM.

N#Cc1c(N)sc2c(F)ccc(-c3c(Cl)cc4c(N5CCCCC6(CN(C(=O)C78COCC7C8)C6)C5)nc(OC[C@@]56CCCN5C[C@H](F)C6)nc4c3F)c12 (stereo partly drawn) [compound 333, 4-(4-(2-(3-oxabicyclo[3.1.0]hexane-1-carbonyl)-2,6-diazaspiro [3.6]decan-6-yl)-6-chloro-8-fluoro-2-(((2R,7aS)-2-fluorotetrahydro-1H-pyrrolizin-7a(5H)-yl)methoxy)quinazolin-7-yl)-2-amino-7-fluorobenzo[b]thiophene-3-carbonitrile] showed an IC50 (KRASwt) of under 5 µM and an IC50 (KRASG12D) of under 5 µM.

For N#Cc1c(N)sc2c(F)ccc(-c3c(Cl)cc4c(N5CCCCC6(CN(C(=O)c7ccnn7CCC(F)F)C6)C5)nc(OC[C@@]56CCCN5C[C@H](F)C6)nc4c3F)c12 [compound 341, 2-amino-4-(6-chloro-4-(2-(1-(3,3-difluoropropyl)-1H-pyrazole-5-carbonyl)-2,6-diazaspiro[3.6]decan-6-yl)-8-fluoro-2-(((2R,7aS)-2-fluorotetrahydro-1H-pyrrolizin-7a(5H)-yl)methoxy)quinazolin-7-yl)-7-fluorobenzo[b]thiophene-3-carbonitrile], the IC50 (KRASwt) was under 5 µM and the IC50 (KRASG12D) was under 5 µM.

Work on C#Cc1c(F)ccc2cc(O)cc(-c3ncc4c(N5CCCCC6(CN(C(=O)C(F)F)C6)C5)nc(OC[C@@]56CCCN5C[C@H](F)C6)nc4c3F)c12 [compound 344, 1-(6-(7-(8-ethynyl-7-fluoro-3-hydroxynaphthalen-1-yl)-8-fluoro-2-(((2R,7aS)-2-fluorotetrahydro-1H-pyrrolizin-7a(5H)-yl)methoxy)pyrido [4,3-d]pyrimidin-4-yl)-2,6-diazaspiro[3.6]decan-2-yl)-2,2-difluoroethan-1-one] yielded an IC50 (KRASwt) of under 5 µM and an IC50 (KRASG12D) of under 5 µM.

N#Cc1c(N)sc2c(F)ccc(-c3c(Cl)cc4c(N5CCCCC6(CN(C(=O)C7CC8(C7)CC8(F)F)C6)C5)nc(OC[C@@]56CCCN5C[C@H](F)C6)nc4c3F)c12 (stereo partly drawn) [compound 309, 2-amino-4-(6-chloro-4-(2-(1,1-difluorospiro[2.3]hexane-5-carbonyl)-2,6-diazaspiro[3.6]decan-6-yl)-8-fluoro-2-(((2R,7aS)-2-fluorotetrahydro-1H-pyrrolizin-7a(5H)-yl)methoxy)quinazolin-7-yl)-7-fluorobenzo[b]thiophene-3-carbonitrile] was tested, and the IC50 (KRASwt) was under 5 µM and the IC50 (KRASG12D) was under 5 µM.
